# Laboratory results published in patent publication US20170172909A1, “Method Of Counteracting The Impact Of Chronic Stress On Skin” (ELC MANAGEMENT LLC, priority 2015, published 2017).
# Several values for one entry are separate records, joined by “and”; a condition that tells them apart may be missing. Identical values can stand only once.
# What was measured:
# [1] = test system: skin explants from the abdominal tissue; test: General morphology of ex vivo skin explants, cortisol-induced premature senescence (Masson's trichrome); format: cell-based, human
# Method: Thirty three skin explants from the abdominal tissue of a donor, of an average diameter of 10 mm (±1 mm) were prepared.
# The formula with 0.1% cortisol was applied topically on days 2, 5, 6 and 7.
# On day 0, the three explants from the batch BO were collected and cut in two parts. One half was fixed in buffered formalin, and the other half was frozen at −80° C. On day 9, three explants from all other batches were collected and processed in the same way.
# Sections were then mounted on Superfrost® plus silanized glass slides. The microscopical observations were made using a Leica DMLB or Orthoplan microscope. Pictures were digitized with a numeric DP72 Olympus camera with CellD storing software.
# The observation of the general morphology was realized after staining of paraffinized sections according to Masson's trichrome, Goldner variant.
# p21 = p21 immunostaining of ex vivo skin explants; format: cell-based, human
# Method: (§4) After fixation for 24 hours in buffered formalin, the samples were dehydrated and impregnated in paraffin using a Leica TP 1010 dehydration automat. The samples were then embedded using a Leica EG 1160 embedding station. 5-μm-thick sections were made using a Leica RM 2125 Minot-type microtome, and the sections were then mounted on Superfrost® histological glass slides.
# (§5) The immunostaining was assessed by microscopical observation.
# The evaluation of the p21 immunostained pictures was based on both the number of cells that were stained as well as the staining intensity in each cell.
# progerin = test: Progerin immunostaining of ex vivo skin explants; format: cell-based, human
# Method: as §4, §5
# Progerin staining intensity was measured in a similar way as for p21.
# elastin = test: Elastin release by HDFs (Elastin Elisa); format: cell-based, human; conditions: 2.5 mg/ml, 72 hours
# Method: (§1) HDFs, at passage 4, were plated in 96 well plates. After the cells reached confluency they were placed under starvation conditions for 48 hours. Cells then were treated with test materials in cell medium for 72 hours after which the medium was collected for analysis of elastin (Elastin Elisa assay, SOP D.33). Cell viability also was measured using the MTT assay (SOP D.29). Statistical analysis was performed with an ANOVA+Fisher LSD post hoc test. A p value of less than 0.05 was considered significant.
# (§2) The results are presented as pg/ml elastin corrected for viability. The percent increase in elastin release is calculated as:
# (§3) % increase=[Amount Elastinactive/Amount Elastincontrol]×100−100
# fibroblasts from eyelid = test: GlaSbox contractile forces on collagen lattices, with or without cortisol, eyelid fibroblasts; format: cell-based, human; conditions: cortisol 250 ng/ml
# Source text: In this study, the GlaSbox® system was used to analyze the effect of cortisol, with and without test materials, on the contractile forces generated by fibroblasts populating collagen lattices. The GlaSbox® device differs from other collagen lattice systems in that it uses a fixed, non-floating collagen lattice where the diameter of the collagen lattice remains constant but electrodes measure the actual contractile forces exerted by the cells on the collagen lattice. Fibroblasts were obtained from eyelid and abdominal skin of Chinese female donors. The effect of Biobenefity and Albizia julibrissin on the contractile forces of fibroblasts originating from eyelid, with or without exposure to cortisol (250 ng/ml), were evaluated. Two fibroblast cell types, one originating from eyelid and the other one from abdominal skin tissue, were purchased from Tebu-Bio (Boechout, Belgium). These cell types were isolated from different donors, each being a person. The fibroblasts were embedded three-dimensionally in hydrated collagen gel lattices. […] The forces are expressed as arbitrary units. […] Data are expressed as mean±standard deviation. The measurement of contractile forces was analyzed by means of a variance analysis with two factors (group versus control and time). […]
# [2] = test system: fibroblasts from abdominal skin; test: GlaSbox contractile forces on collagen lattices, with or without cortisol, abdominal fibroblasts; format: cell-based, human; conditions: cortisol 250 ng/ml
# Source text: In this study, the GlaSbox® system was used to analyze the effect of cortisol, with and without test materials, on the contractile forces generated by fibroblasts populating collagen lattices. The GlaSbox® device differs from other collagen lattice systems in that it uses a fixed, non-floating collagen lattice where the diameter of the collagen lattice remains constant but electrodes measure the actual contractile forces exerted by the cells on the collagen lattice.
# Fibroblasts were obtained from eyelid and abdominal skin of Chinese female donors. The effect of Biobenefity and Albizia julibrissin on the contractile forces of fibroblasts originating from eyelid, with or without exposure to cortisol (250 ng/ml), were evaluated.
# Two fibroblast cell types, one originating from eyelid and the other one from abdominal skin tissue, were purchased from Tebu-Bio (Boechout, Belgium). These cell types were isolated from different donors, each being a person. […] The forces are expressed as arbitrary units.
# Each Glasbox® curve was fitted with GraphPad Prism® software to determine the area under the curve (AUC) and the maximum of contraction (Max). […] Data are expressed as mean±standard deviation. The measurement of contractile forces was analyzed by means of a variance analysis with two factors (group versus control and time). […]
# [3] = test system: Human dermal fibroblasts (HDFs); test: Free floating fibroblast-populated collagen lattice (FPCL) contraction; format: cell-based
# Method: Human dermal fibroblasts (HDFs, passages 6-7) were maintained in Falcon 75 cm^2 tissue culture flasks in DMEM supplemented with 10% FBS. Cells were harvested from monolayer culture, and placed in 6-well culture plates (1×10^5 cells/well). Cells were pretreated with 25 μM hydrocortisone or with a combination of 25 μM hydrocortisone and different concentrations of test materials for 24 hours before being applied to free floating fibroblast populated collagen lattices.
# Gels containing collagen HDFs were prepared as described by Tomasek, J. J., et al. (Fibroblast contraction occurs on release of tension in attached collagen lattices: dependency on an organized actin cytoskeleton and serum. Anat. Rec., 1992, March; 232(3):359-68), incorporated herein by reference in its entirety, with modifications as follows. Briefly, collagen solution (Corning, Rat tail, 354236), concentrated DMEM, 0.1N NaOH and FBS, were gently mixed at 4° C., giving a suspension at a final density of 5×10^5 cells and 3 mg/ml collagen. The collagen/cell suspension (2 ml total) was poured on 35 mm-uncoated dish and allowed to polymerize for 45 minutes at 37° C. Then lattices were released and gels were allowed to float in the medium. […]
# Fibroblast contractility was assessed by measuring changes in the surface area of collagen I gels mediated by fibroblasts. […] Thereafter, lattice diameter was measured. […]
# [4] = test system: fibroblasts from an abdominoplasty; test: GlaSbox contractile forces of fibroblasts on collagen lattices (stimulation, Example 3); format: cell-based, human; conditions: 2.5 ng/ml, 24 hours
# Source text: In this study, the GlaSbox® system was used to analyze the effect of cosmetic raw materials, TGFβ1, Taisoh Liquid B Jujube Extract (Ziziphus jujuba fruit), available from Ichimaru Pharcos, and Uplevity, available from Lipotec. TGFβ1, used in this study as a positive control, is known to play a role in cellular functions, including cell proliferation, differentiation, wound healing and matrix-related processes. Taisoh Liquid B Jujube Extract has been reported to stimulate wound healing. […]
# Fibroblasts were embedded three-dimensionally in hydrated collagen gels composed of 6 volumes of 1.76× (DMEMc, NaHCO3, NaOH, antibiotics), 3 volumes rat tail type I collagen (2 mg/ml) and 1 volume of cellular suspension (8×10^5 cells/ml) using a modified version of the technique developed by Bell et al. (Production of a tissue-like structure by contraction of collagen lattices by human fibroblasts of different proliferative potential in vitro. Proc. Natl. Acad. Sci. USA 76, 1274-1278 (1979). The lattice mixture was poured into the rectangular culture plate of the GlaSbox® and polymerized in less than 30 minutes at 37° C. […] The forces were expressed as arbitrary units (AU) after 24 hours of measurement. […]
# tropoelastin = test: Tropoelastin synthesis by HDFs; format: cell-based, human; conditions: 5 pg/ml
# Method: as §1, §2, §3
# fibrillin-1 = test: Fibrillin-1 release by HDFs (sandwich ELISA); format: cell-based, human; conditions: positive control, 100 ng/ml, 24 hours
# Method: Fibrillins, glycoproteins secreted by fibroblasts, are essential for the formation of elastic fibers found in connective tissue. Test compounds Mitostime (extract of Laminaria digitata) and Milk Peptide Complex (MPC or whey protein, available from CLR, Germany) were evaluated for their capacity to stimulate the synthesis of fibrillin-1 in HDFs.
# An aliquot of a selected fibroblast cell line (HDFs) was thawed, placed into culture, and allowed to establish good growth before passaging into a 24-well plate (5×10^4 cells/1 ml well). After overnight adhesion to the well, test compounds were added to the medium at three different concentrations and the cells were incubated for 24 hours. A positive control of 100 ng/ml TGFβ1, was included. The negative controls used were 0.1% BSA and 0.1% EtOH. After 24 hours, medium was harvested, centrifuged, and transferred to fibrillin-1 sandwich ELISA plates to determine the amount of fibrillin released.
# [5] = day 9, with 0.1% cortisol, Biwa leaf, Biobenefity, Juvinity 0.5% w/v, IBR Dormin 0.1% w/v
# [6] = 0.1% cortisol, day 9, versus untreated
compound,measurement,setting,value
"CC(C)=CCCC(C)=CCCC(C)=CCCC(C)=CCCC(C)O (stereo not shown) [Juvinity, Geranylgeranyl-2-propanol]",General morphology of explants,"[1]; day 9, absence of cortisol, Biwa leaf, Biobenefity, Juvinity 0.5% w/v, IBR Dormin 0.1% w/v in medium","altered morphology, with pycnotic nuclei and cellular spongiosis"
same,Effect on cortisol-induced morphology (epidermal thickness),"[1]; day 9, with topical 0.1% cortisol, Biwa leaf, Biobenefity, Juvinity 0.5% w/v, IBR Dormin 0.1% w/v",did not have any beneficial effect
same,Effect on cortisol-induced increase in p21 staining intensity,p21; [5],partially reduce
same,Effect on cortisol-induced increase in progerin staining intensity,progerin; [5],did not show a beneficial effect
"O=C[C@H](O)[C@H](O)[C@H](O)CO [Riboxyl, D-ribose]",Increase in elastin synthesis versus untreated cells,elastin,66%
C[C@]12CCC(=O)C=C1CC[C@@H]1[C@@H]2[C@@H](O)C[C@@]2(C)[C@H]1CC[C@]2(O)C(=O)CO [cortisol],General morphology of explants,[1]; 0.1% cortisol topically during 7 days (day 2 to day 9),moderate epidermal atrophy
same,p21 staining intensity (semi-quantitative grading),p21; [6],from very weak to moderate
same,Progerin staining intensity,progerin; [6],increased from weak to moderate
same,Contractile forces (AUC and maximum contractile force),fibroblasts from eyelid,significant decrease
same,Contractile forces (AUC and maximum contractile force),[2],significant decrease
same,Decrease of lattice contraction versus untreated lattices,"[3]; 25 μM, listed as hydrocortisone",11.8% and 9%
same,Decrease of lattice contraction versus untreated lattices,[3]; 50 μM,18%
"TGFβ1: Transforming Growth Factor β, secreted protein used as a positive control",Increase of contractile forces (AUC),[4],25.5%
same,Increase of maximum contraction,[4],26.0%
same,Increase in tropoelastin synthesis versus untreated cells,tropoelastin,175%
same,Fibrillin release at baseline level,fibrillin-1,stimulate the fibrillin release
